Patent US8344100B2, “Poly-epitope peptide derived from thymidylate synthase having immunological and anti-tumour activity” (Universitá degli Studi di Siena, priority 2005, dated 2013)
Each block holds one molecule with its values, some of them ahead of it. Where a SMILES comes first, the peptide text is derived from it.

Columns and labels:
[1] = Anatomo-pathological study of organs (autoimmunity, toxicity); assay type: in vivo, transgenic (HHD) mice; details: lung, liver, spleen, kidney, brain, skin and mucosa
[2] = test system: HT-29 cells transfected with the HLA-A(*)02.01 gene; experiment: 51Cr release cytotoxicity test of CTL lines against colon carcinoma cells HT-29; assay type: cell-based; details: HT-29 pretreated with 5-FU
Protocol: (§1) The lymphocyte lines generated in vitro using TS/PP were capable of destroying the target cells derived from colon carcinoma (the HT-29 and SW-1463 cell lines).
HLA-A (*)02.01 expression was induced by gene transfection on the membrane of HT29 target cells before every experiment. Specific lysis was calculated as follows: […]

MDA-MB-231 cells = details: MDA-MB-231 pretreated with 5-FU
Protocol: Cytotoxic assays. The release of radioactive chrome (^51Cr) was assayed as described in previous studies [18].
Spontaneous release was determined in the plates to which 100 μl of medium was added without effector cells. The total radioactivity released was determined after treating the target with Triton x-100. HLA was blocked by using an anti-HLA-A2 antibody (A2.69, One Lambda, Inc., Chanoga Park, Calif., USA) or the anti-class I (pan A,B,C)-HLA antibody W6.32, which were incubated with the target cells for one hour before the cytotoxicity assay. The negative control was the UPC-10 monoclonal antibody.
The cytotoxicity tests carried out using the technique of ^51Cr release were performed using target cells coming from cell lines derived from breast carcinoma (MDA-MB-231) and colon carcinoma (HT-29 and SW-1463), before and after treatment with sub-lethal doses of 5-FU.

SW-1463 cells = experiment: 51Cr release cytotoxicity test of CTL lines against colon carcinoma cells SW-1463; assay type: cell-based; details: SW-1463 pretreated with 5-FU
Excerpt: as §1

[3] = test system: MDA-MB-231, HT-29 and SW-1463 target cells; experiment: Cytofluorimetric and immunoblotting analyses of target cells treated with 5-FU; assay type: cell-based, human; details: data not shown
[4] = test system: murine TS in EL-4/HHD cells; experiment: Cytofluorimetric test of TS expression in EL-4/HHD cells; assay type: cell-based, mouse; details: sub-lethal dose, constitutive expression 35%
[5] = test system: EL-4/HHD autologous leukemic cells; experiment: Tumour growth in HHD mice inoculated with EL-4/HHD cells; assay type: in vivo, transgenic (HHD) mice; details: with weekly intraperitoneal 5-FU
Protocol: The results are given as the mean value ±SD of the maximum diameter.
In this study, six groups of five mice received different immunological treatments with or without chemotherapeutic treatment with 5-FU. The mice in groups A and B were administered a control peptide derived from the mumps virus (100 μg per mouse); the mice in groups C and D were administered a cocktail of the TS-1, TS-2 and TS-3 peptides (100 μg per mouse); and the mice in groups E and F were administered the TS/PP peptide (100 μg per mouse).
The mice received the first peptide administration subcutaneously at time 0, with recalls in the third and sixth week. Two weeks after the last administration, all animals were subcutaneously inoculated with 2×10^6 EL-4/HHD cells.
In order to evaluate the possible interaction between TS and the 5-FU treatment for vaccination purposes, seven days after the tumour cells inoculation, the mice in groups B, D and F underwent a chemotherapeutic treatment based on weekly intraperitoneal administration of 5-FU ([…]).

[6] = test system: breast and colon carcinoma tumour cells; experiment: Viability of target cells exposed to 5-FU (hemocytometric count); assay type: cell-based, human; details: sub-lethal doses for 48 hours
Excerpt: The viability of the target cells exposed to 5-FU was examined by means of a hemocytometric count after staining and was never less than 90%, thus excluding the possibility that the immunosensitisation was due to the large number of dead or already degenerating cells in the cytotoxicity assay.

[7] = target: T1, HLA-A(*)02.01 molecule on cells (human); experiment: T2 test (flow cytometry, HLA-A*02:01 on T2 cells)
T1 construct: whole, on cells; Class I MHC molecule on cells; also called HLA-A2; HLA-A2.1

[8] = target: T1, HLA-A(*)02.01 molecule on cells; experiment: T2 test (flow cytometry of HLA expression on T2 cells after exposure to the peptide)

binding result [8]: no binding
Molecule: YMIAHITGLFLDSLGFSTTLGDAHIYL (also called 28-amer peptide) [TS/PP poly-epitope peptide (YMIAHITGLFLDSLGFSTTLGDAHIYL)]

binding result [7]: binds
Molecule: FLDSLGFST (Synthetic 9-mer) [TS-3 peptide (FLDSLGFST)]

Second part, the molecule before the results:

Molecule: CC[C@H](C)[C@H](NC(=O)[C@H](CCSC)NC(=O)[C@@H](N)Cc1ccc(O)cc1)C(=O)N[C@@H](C)C(=O)N[C@@H](Cc1c[nH]cn1)C(=O)N[C@H](C(=O)N[C@H](C(=O)NCC(=O)N[C@@H](CC(C)C)C(=O)N[C@@H](Cc1ccccc1)C(=O)N[C@@H](CC(C)C)C(=O)N[C@@H](CC(=O)O)C(=O)N[C@@H](CO)C(=O)N[C@@H](CC(C)C)C(=O)NCC(=O)N[C@@H](Cc1ccccc1)C(=O)N[C@@H](CO)C(=O)N[C@H](C(=O)N[C@H](C(=O)N[C@@H](CC(C)C)C(=O)NCC(=O)N[C@@H](CC(=O)O)C(=O)N[C@@H](C)C(=O)N[C@@H](Cc1c[nH]cn1)C(=O)N[C@H](C(=O)N[C@@H](Cc1ccc(O)cc1)C(=O)N[C@@H](CC(C)C)C(=O)O)[C@@H](C)CC)[C@@H](C)O)[C@@H](C)O)[C@@H](C)O)[C@@H](C)CC [TS/PP] (H-YMIAHITGLFLDSLGFSTTLGDAHIYL-OH; N-terminus and C-terminus assumed)
Degeneration, autoimmunity or toxicity [1]: do not indicate any autoimmunity or toxicity phenomena
Lysis after target cell pre-treatment with sub-lethal 5-FU doses [2]: significantly increased
Lytic activity after target cell pre-treatment with sub-lethal 5-FU doses (MDA-MB-231 cells): significantly increased
Lysis after target cell pre-treatment with sub-lethal 5-FU doses (SW-1463 cells): significantly increased

Molecule: O=c1[nH]cc(F)c(=O)[nH]1 [5-FU, 5-fluorouracil]
TS expression ([3]; MDA-MB-231, HT-29, SW-1463): significant increase
Class I HLA expression [3]: did not induce any change
Expression of murine TS [4]: 55-70%
Neoplastic growth [5]: did not change neoplastic growth in any way
Viability of the target cells [6]: ≥ 90%

Molecule: YMIAHITGL (Synthetic 9-mer) [TS-2 peptide (YMIAHITGL)]
binding result [7]: binds

Molecule: TLGDAHIYL (Synthetic 9-mer) [TS-1 peptide (TLGDAHIYL)]
binding result [7]: binds
